In one experiment the target is α-glucosidase. The settings on record: cited from earlier work.
The next experiment deals with E. faecalis. The settings on record: cited from earlier work.
Another experiment has as its system S. aureus. The following applies: cited from earlier work.
Experiment [1] relates to B. subtilis, B. cereus and S. aureus. More on the design: method as in earlier work. The following applies: cited from earlier work.
In another experiment the test system is P. aeruginosa. The following applies: cited from earlier work.
The subject of the next experiment is B. subtilis. More on the design: method as in PMID 31737673. The settings on record: same ATCC strain as in the present study; cited from earlier work.
Experiment [2] has as its system HT-29 human colon adenocarcinoma cells. More on the design: method as in doi:10.1007/s00044-015-1500-z. The following applies: cited from earlier work.
The conditions of experiment [3]: cited from earlier work.
A further experiment relates to HL60 cells. The following applies: cited from earlier work.
For experiment [4], the system named is YMB-1 breast cancer cells. The following applies: cited from earlier work.
A further experiment concerns KB cells. The following applies: cited from earlier work.
Experiment [5] can be described thus: DPPH radical scavenging activity assay. The following applies: methanolic aerial parts extracts (Soxhlet); 30 min. The procedure: Antiradical activity was assessed using the free radical 2,2-diphenyl-1-picrylhydrazyl (DPPH) according to the previously described procedure. Methanolic stock solution of DPPH (0.1 mM) was dissolved to obtain absorbance of 0.70 ± 0.02. In 2 mL of prepared solution, 10 µL sample was added. After 30 min incubation, absorbance was measured at 517 nm with methanol used as blank. Results are expressed as concentrations observed to reduce the DPPH radical absorbance by 50% (IC50).
(Loss of DPPH colour is used to gauge radical scavenging.)

In experiment [6] the test system is CAMA-1 breast cancer cells. More on the design: method as in doi:10.4314/tjpr.v17i9.4. The following applies: cited from earlier work.
Experiment [7] deals with Pseudomonas aeruginosa ATCC 27853. The experiment can be described thus: Well diffusion method. In kind it is cell-based. The following applies: aerial parts extracts c = 50 mg/mL; antibiotics c = 0.2 mg/mL; n.d. = growth inhibition not detected. The protocol:
(§1) Antibacterial activity was evaluated using the following strains: Bacillus cereus American Type Culture Collection (ATCC, Manassas, VA, USA) 11778, B. subtilis ATCC 6633, Enterococcus faecalis ATCC 29212, Staphylococcus aureus ATCC 6538 and S. aureus ATCC 29213 among Gram-positive and Escherichia coli ATCC 10536, Klebsiella pneumoniae MFBF 10402 and Pseudomonas aeruginosa ATCC 27853 among Gram-negative bacterial species. Additionally, eight clinical isolates of S. aureus, including methicillin-resistant S. aureus (MRSA MFB F101, MRSA MFBF 124, MRSA MFBF 154, MRSA MFBF 164, and MRSA MFBF 177) and methicillin susceptible S. aureus (S. aureus MFBF 505, S. aureus MFBF 10661 and S. aureus MFBF 10666) were used. Bacterial strains were sourced from the Collection of Microorganisms, Department of Microbiology, Faculty of Pharmacy and Biochemistry, University of Zagreb. Inoculums were prepared from overnight cultures that were cultured on tryptic soy agar (TSA) at 37 °C, suspended in sterile physiological saline, with the optic density adjusted to 0.5 McFarland (1.5 × 10^8 colony-forming units (CFUs)/mL) using a densitometer (Densimat, BioMérieux, Marcy-l’Étoile, France). Right before cultivation in nutrient medium, 1 mL of each prepared suspension was dissolved with 9 mL physiological saline. Prior to cell treatment, sample stock solutions in distilled water (c = 50 mg/mL) were filtered through Chromafil cellulose acetate filters of pore size 0.22 μm (Macherey-Nagel, Düren, Germany).
(§2) Well diffusion method was carried out according to the European Pharmacopoeia. Inoculums (100 μL) were transferred to individual petri dishes with 4 mm thick Müller–Hinton agar and equally distributed across agar surface with a glass L-stick. Wells were prepared using sterile stainless-steel cylinders (d = 6 mm) and filled with 50 μL of methanolic aerial parts extract solution (c = 50 mg/mL) in distilled water. Plates were incubated at 37 °C for 18 h in the dark. Diameters of the zones of inhibition of bacterial growth (mm) were read from the diameters of transparent zones around the wells. Gentamicin and norfloxacin (c = 0.2 mg/mL) were used as positive controls.
(In general: In agar diffusion tests the substance spreads into inoculated agar from a disc or well.)

The test system of experiment [8] is Bacillus subtilis ATCC 6633. The experiment is described as follows: Well diffusion method. In kind it is cell-based. The following applies: aerial parts extracts c = 50 mg/mL; antibiotics c = 0.2 mg/mL; n.d. = growth inhibition not detected. The procedure:
as §1, §2

The subject of experiment [9] is Enterococcus faecalis ATCC 29212. The experiment can be described thus: Well diffusion method. The format is cell-based. The following applies: aerial parts extracts c = 50 mg/mL; antibiotics c = 0.2 mg/mL; n.d. = growth inhibition not detected. The procedure: as §1, §2
Experiment [10] relates to Escherichia coli ATCC 10536. The experiment is described as follows: Well diffusion method. The format is cell-based. The following applies: aerial parts extracts c = 50 mg/mL; antibiotics c = 0.2 mg/mL; n.d. = growth inhibition not detected. The protocol:
as §1, §2

The subject of experiment [11] is Staphylococcus aureus ATCC 6538. The experiment can be described thus: Well diffusion method. In kind it is cell-based. The settings on record: aerial parts extracts c = 50 mg/mL; antibiotics c = 0.2 mg/mL. The protocol:
as §1, §2

Experiment [12] concerns Klebsiella pneumoniae MFBF 10402. The experiment is described as follows: Well diffusion method. The format is cell-based. The settings on record: aerial parts extracts c = 50 mg/mL; antibiotics c = 0.2 mg/mL; n.d. = growth inhibition not detected. The procedure:
as §1, §2

Experiment [13] deals with Bacillus cereus ATCC 11778. The experiment is described as follows: Well diffusion method. In kind it is cell-based. The following applies: aerial parts extracts c = 50 mg/mL; antibiotics c = 0.2 mg/mL; n.d. = growth inhibition not detected. The protocol:
as §1, §2

Another experiment has as its system E. coli. Also noted: method as in doi:10.1016/j.sajb.2010.04.010. The following applies: range given for both compounds; cited from earlier work.
Setting [14] is: compounds from Origanum majorana leaves.
Setting [15] is: same ATCC strain as in the present study.
[16] abbreviates: constituents of G. alypum and standards, read-out: DPPH radical scavenging IC50.
The mark [17] stands for this setting: isolated compounds of Clerodendrum bungei.

Structures are written as SMILES. Converted amounts (≈) assume the structure as drawn. Like-named read-outs stand apart in the source and are kept apart here.

In general, IC50 refers to the concentration that inhibits the measured activity by half.

For the molecule `O=c1cc(-c2ccc(O)cc2)oc2cc(O)c(O)c(O)c12` [6-hydroxyapigenin, 6-hydroxyapigenin (scutellarein)], at α-glucosidase (setting [14]), the IC50 was 12 µM.

Take `O=c1cc(-c2ccc(O)cc2)oc2cc(O)cc(O)c12` [apigenin, Apigenin]: on α-glucosidase (setting [14]), the IC50 is more than 500 µM. Besides, the “MIC against E. faecalis” value in the experiment with E. faecalis (setting [15]) was 8 µg/mL (≈ 29.6 µM). For the same molecule, the “inhibitory activity against S. aureus” value with S. aureus was “no inhibitory activity was observed”. The “MIC against B. subtilis, B. cereus and S. aureus” value in experiment [1] is 30 to 80 µg/mL. Besides, the “MIC against P. aeruginosa” value with P. aeruginosa (setting [15]) was 64 to 400 µg/mL. Moreover, in the experiment on B. subtilis, the “MIC against B. subtilis” value is 8 µg/mL (≈ 29.6 µM).

`CC(=O)OCC1=C[C@H](O)[C@@H]2C(C(=O)O)=CO[C@@H](O[C@@H]3O[C@H](CO)[C@@H](O)[C@H](O)[C@H]3O)[C@H]12` [asperulosidic acid, Asperulosidic acid]: the “IC50 HT-29 cell viability” value in [2] was 6.1 µg/mL (≈ 14.1 µM).

As to `Cc1cc(C(C)(C)C)c(O)c(C(C)(C)C)c1` [butylated hydroxytoluene], in experiment [3] (setting [16]), the IC50 was 30 µM.

As for `CC(=O)OCC1=C[C@@H]2OC(=O)C3=CO[C@@H](O[C@@H]4O[C@H](CO)[C@@H](O)[C@H](O)[C@H]4O)[C@H]1[C@@H]32` [asperuloside, Asperuloside], in the experiment on HL60 cells, the “IC50 HL60 cells” value is 11.0 µg/mL (≈ 26.5 µM). In addition, the “IC50 YMB-1 breast cancer cells” value in [4] was 0.7 µg/mL (≈ 1.69 µM). For the same molecule, the “IC50 KB cells” value in the experiment on KB cells was 104.2 µg/mL (≈ 251 µM).

For `O=c1cc(-c2ccc(O)c(O)c2)oc2cc(O[C@@H]3O[C@H](CO)[C@@H](O)[C@H](O)[C@H]3O)cc(O)c12` [luteolin 7-O-glucoside], the “MIC against B. subtilis, B. cereus and S. aureus” value in [1] is 50 to 90 µg/mL.

Consider `O=C(/C=C/c1ccc(O)c(O)c1)O[C@H]1[C@H](O)[C@@H](O)[C@H](OCCc2ccc(O)c(O)c2)O[C@@H]1CO` [calceolarioside A, Calceolarioside A (Desrhamnosyl verbascoside)], for which the IC50 in experiment [3] (read-out: DPPH IC50) is 22.9 µM.

As to `O=c1c(O)c(-c2ccc(O)c(O)c2)oc2cc(O)cc(O)c12` [quercetin], in [3] (setting [16]), the IC50 was 7.8 µM.

For the molecule `COc1cc(/C=C/C(=O)O[C@H]2[C@H](O[C@@H]3O[C@@H](C)[C@H](O)[C@@H](O)[C@H]3O)[C@@H](O)[C@H](OCCc3ccc(O)c(O)c3)O[C@@H]2CO)ccc1O` [leucosceptoside A, Leucosceptoside A], the IC50 at α-glucosidase (setting [17]) is 700 µM.

Consider `O=C(O)c1cc(O)c(O)c(O)c1` [Gallic Acid, gallic acid], for which the “DPPH radical scavenging activity IC50” value in experiment [5] was found to be 0.64 µg/mL.

For `O=c1cc(-c2ccc(O)c(O)c2)oc2cc(O)c(O)c(O)c12` [6-hydroxyluteolin], the IC50 on α-glucosidase (setting [14]) was 10 µM.

With `OCCc1ccc(O)c(O)c1` [hydroxytyrosyl moiety], the IC50 at α-glucosidase was 150 µM.

For `O=C(OCC1=CC(O)C2(O)C=COC(O[C@@H]3O[C@H](CO)[C@@H](O)[C@H](O)[C@H]3O)C12)c1ccccc1` (stereo partly shown) [Globularifolin, Globularifolin (10-O-Benzoylmonomelittoside)], in [6], the IC50 was 10 µM.

Turning to `O=c1cc(-c2ccc(O)c(O)c2)oc2cc(O)cc(O)c12` [luteolin], on α-glucosidase (setting [14]), the IC50 is more than 500 µM.

As for `CCn1cc(C(=O)O)c(=O)c2cc(F)c(N3CCNCC3)cc21` [Norfloxacin, norfloxacin], the growth inhibition zone in experiment [7] was determined as 30.7 ± 2.8 mm; in [8], 41.0 ± 0.0 mm; in [9], 23.8 ± 0.8 mm; in experiment [10], 44.7 ± 1.0 mm; in experiment [11] it was 33.8 ± 0.8 mm; in experiment [12] it was 7.3 ± 0.5 mm. Moreover, the growth inhibition zone in experiment [13] amounted to 26.6 ± 0.9 mm.

`C[C@@H]1O[C@@H](O[C@@H]2[C@@H](O)[C@H](OCCc3ccc(O)c(O)c3)O[C@H](COC(=O)/C=C/c3ccc(O)c(O)c3)[C@H]2O)[C@H](O)[C@H](O)[C@H]1O` [isoverbascoside, Isoverbascoside (Isoacteoside)]: the IC50 at α-glucosidase (setting [17]) is 100 µM. Also, the “MIC against E. faecalis” value with E. faecalis (range given for both compounds) is 100 to 150 µg/mL. The “MIC, anti-staphylococcal activity” value in the experiment on S. aureus is 130 µg/mL (≈ 208 µM). Further, the “MIC against E. coli” value with E. coli was 100 to 250 µg/mL. The “MIC against P. aeruginosa” value in the experiment with P. aeruginosa (given for both compounds) was 250 µg/mL (≈ 400 µM).

For the molecule `Cc1c(C)c2c(c(C)c1O)CCC(C)(C(=O)O)O2` (stereo not shown) [Trolox], in experiment [5], the “DPPH radical scavenging activity IC50” value turned out to be 2.71 µg/mL.

Regarding `O=C(/C=C/c1ccc(O)c(O)c1)OC[C@H]1O[C@@H](OCCc2ccc(O)c(O)c2)[C@H](O)[C@@H](O)[C@@H]1O` [calceolarioside B, Calceolarioside B (Desrhamnosyl isoverbascoside)], the IC50 in [3] (read-out: DPPH IC50) is 26.2 µM.

Regarding `O=c1cc(-c2ccc(O)cc2)oc2c([C@@H]3O[C@H](CO)[C@@H](O)[C@H](O)[C@H]3O)c(O)c([C@@H]3O[C@H](CO)[C@@H](O)[C@H](O)[C@H]3O)c(O)c12` [vicenin-2, Vicenin-2 (Apigenin-6,8-di-C-glucoside)], on α-glucosidase, the IC50 was 271 µM.

`O=c1cc(-c2ccc(O)c(O)c2)oc2cc(O[C@@H]3O[C@H](CO)[C@@H](O)[C@H](O)[C@H]3O)c(O)c(O)c12` [6-hydroxyluteolin 7-O-glucoside, 6-Hydroxyluteolin 7-O-glucoside]: on α-glucosidase (setting [14]), the IC50 was 300 µM.

These data come from article PMC9146695, “Globularia alypum L. and Related Species: LC-MS Profiles and Antidiabetic, Antioxidant, Anti-Inflammatory, Antibacterial and Anticancer Potential” (Pharmaceuticals, 2022).
